Laboratory results taken from ChEMBL document CHEMBL5550184, “Structure-activity relationships of middle-size cyclic peptides, KRAS inhibitors derived from an mRNA display” (Bioorg Med Chem, 2024).
pIC50, pKd: −log10 of the molar value. Positions of bridges follow the written chain, without caps; N, C: chain ends. Non-standard residues stand in square brackets, D forms with d. Residues, ends and D or L forms follow the SMILES beside them. *: point of attachment. hPhe(3-Cl-4-CF3) = N[C@@H](CCc1ccc(C(F)(F)F)c(Cl)c1)C(=O)O; NMeGly(cPent) = CN[C@H](C(=O)O)C1CCCC1; NMeCha = CN[C@@H](CC1CCCCC1)C(=O)O; NMeChg = CN[C@H](C(=O)O)C1CCCCC1; NMeT = CN[C@H](C(=O)O)[C@@H](C)O; NMeD = CN[C@@H](CC(=O)O)C(=O)O; NMeL = CN[C@@H](CC(C)C)C(=O)O; NMehSer = CN[C@@H](CCO)C(=O)O; Morpholide = C1CN(*)CCO1; NMeA = CN[C@@H](C)C(=O)O; Piperidide = C1CCN(*)CC1; Ac5c = NC1(C(=O)O)CCCC1; Aze = O=C(O)[C@@H]1CCN1; Sar = CNCC(=O)O

What was measured:
[1] = Inhibition of biotin-tagged KRAS G12D mutant (unknown origin) to recombinant His-tagged SOS1 (unknown origin) protein-protein interaction incubated for 120 mins by AlphaLISA method; parameters: species or system Homo sapiens
[2] = biological target: GTPase KRas (Homo sapiens, UniProt P01116, G12D); experiment: Binding affinity to biotinylated KRAS G12D mutant (unknown origin) incubated for 120 mins by SPR analysis
[3] = system: ASPC1; experiment: Cytotoxicity against human AsPC1 cells assessed as reduction in cell viability incubated for 7 days by CellTiterGlo Luminescent Cell Viability Assay; format: functional, cell-based; details: ASPC1, 168 h
[4] = Apparent permeability in human Caco-2 cells incubated for 180 mins by LC-MS/MS method; format: ADME, cell-based
[5] = Half-life in BALB/c nude mouse at 1 mg/kg, iv measured upto 24 hrs by LC-MS/MS analysis; format: ADME, organism-based; details: in vivo
[6] = Half-life in BALB/c nude mouse at 20 mg/kg, po measured upto 24 hrs by LC-MS/MS analysis; format: ADME, organism-based; details: in vivo
[7] = Half-life in Wistar Hannover rat at 1 mg/kg, iv measured upto 24 hrs by LC-MS/MS analysis; format: ADME, organism-based; details: Wistar Hannover, in vivo
[8] = Half-life in Wistar Hannover rat at 10 mg/kg, po measured upto 48 hrs by LC-MS/MS analysis; format: ADME, organism-based; details: in vivo
[9] = Half-life in Cynomolgus monkey at 0.167 mg/kg, iv measured upto 24 hrs by LC-MS/MS analysis; format: ADME, organism-based, Macaca fascicularis; details: in vivo
[10] = Half-life in Cynomolgus monkey at 15 mg/kg, po measured upto 48 hrs by LC-MS/MS analysis; format: ADME, organism-based, Macaca fascicularis; details: in vivo
[11] = AUCinfinity in BALB/c nude mouse at 1 mg/kg, iv measured upto 24 hrs by LC-MS/MS analysis; format: ADME, organism-based; details: BALB/c nude, in vivo
[12] = AUCinfinity in BALB/c nude mouse at 20 mg/kg, po measured upto 24 hrs by LC-MS/MS analysis; format: ADME, organism-based; details: BALB/c nude, in vivo
[13] = AUCinfinity in Wistar Hannover rat at 1 mg/kg, iv measured upto 24 hrs by LC-MS/MS analysis; format: ADME, organism-based; details: in vivo
[14] = AUCinfinity in Wistar Hannover rat at 10 mg/kg, po measured upto 48 hrs by LC-MS/MS analysis; format: ADME, organism-based; details: in vivo
[15] = AUCinfinity in Cynomolgus monkey at 0.167 mg/kg, iv measured upto 24 hrs by LC-MS/MS analysis; format: ADME, organism-based, Macaca fascicularis; details: in vivo
[16] = AUCinfinity in Cynomolgus monkey at 15 mg/kg, po measured upto 48 hrs by LC-MS/MS analysis; format: ADME, organism-based, Macaca fascicularis; details: in vivo
[17] = Clearance in BALB/c nude mouse at 1 mg/kg, iv measured upto 24 hrs by LC-MS/MS analysis; format: ADME, organism-based; details: in vivo
[18] = Clearance in Wistar Hannover rat at 1 mg/kg, iv measured upto 24 hrs by LC-MS/MS analysis; format: ADME, organism-based; details: in vivo
[19] = Clearance in Cynomolgus monkey at 0.167 mg/kg, iv measured upto 24 hrs by LC-MS/MS analysis; format: ADME, organism-based, Macaca fascicularis; details: in vivo
[20] = Volume of distribution at steady state in BALB/c nude mouse at 1 mg/kg, iv measured upto 24 hrs by LC-MS/MS analysis; format: ADME, organism-based; details: in vivo, read-out: Vdss
[21] = Volume of distribution at steady state in Wistar Hannover rat at 1 mg/kg, iv measured upto 24 hrs by LC-MS/MS analysis; format: ADME, organism-based; details: Wistar Hannover, in vivo, read-out: Vdss
[22] = Volume of distribution at steady state in Cynomolgus monkey at 0.167 mg/kg, iv measured upto 24 hrs by LC-MS/MS analysis; format: ADME, organism-based, Macaca fascicularis; details: in vivo, read-out: Vdss
[23] = Oral bioavailability in BALB/c nude mouse at 20 mg/kg measured upto 24 hrs by LC-MS/MS analysis; format: ADME, organism-based; details: BALB/c nude, in vivo
[24] = Oral bioavailability in Wistar Hannover rat at 10 mg/kg measured upto 48 hrs by LC-MS/MS analysis; format: ADME, organism-based; details: in vivo
[25] = Oral bioavailability in Cynomolgus monkey at 15 mg/kg measured upto 48 hrs by LC-MS/MS analysis; format: ADME, organism-based, Macaca fascicularis; details: in vivo
[26] = Metabolic stability in human liver microsomes assessed as intrinsic clearance per mg protein at 0.2 uM measured upto 30 mins by LC-MS/MS analysis; format: ADME, Microsome; details: read-out: CLH
[27] = Metabolic stability in mouse liver microsomes assessed as intrinsic clearance per mg protein at 0.2 uM measured upto 30 mins by LC-MS/MS analysis; format: ADME, Microsome; details: read-out: CLH
[28] = Metabolic stability in rat liver microsomes assessed as intrinsic clearance per mg protein at 0.2 uM measured upto 30 mins by LC-MS/MS analysis; format: ADME, Microsome; details: read-out: CLH
[29] = Metabolic stability in monkey liver microsomes assessed as intrinsic clearance per mg protein at 0.2 uM measured upto 30 mins by LC-MS/MS analysis; format: ADME, Macaca mulatta, Microsome; details: rhesus monkey, read-out: CLH
[30] = system: GTPase KRas (Homo sapiens), P01116 [G12D]; experiment: Binding affinity to biotinylated KRAS G12D mutant (unknown origin) assessed as Kon incubated for 120 mins by SPR analysis
[31] = system: GTPase KRas (Homo sapiens), P01116 [G12D]; experiment: Binding affinity to biotinylated KRAS G12D mutant (unknown origin) assessed as Koff incubated for 120 mins by SPR analysis

GTPase KRas (Homo sapiens), P01116 [G12D], sequence (P01116 whole entry G12D, looked up): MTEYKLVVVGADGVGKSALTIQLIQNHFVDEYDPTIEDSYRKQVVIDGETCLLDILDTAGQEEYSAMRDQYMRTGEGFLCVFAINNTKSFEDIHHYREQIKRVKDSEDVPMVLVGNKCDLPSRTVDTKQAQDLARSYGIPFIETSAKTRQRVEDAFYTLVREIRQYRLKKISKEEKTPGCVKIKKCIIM
GTPase KRas, sequence (P01116 whole entry G12D): as the sequence (P01116 whole entry G12D, looked up) above

CC[C@H](C)[C@@H]1NC(=O)[C@H](CC(C)C)N(C)C(=O)C[C@@H](C(=O)N2CCOCC2)N(C)C(=O)[C@H](C2CCCC2)N(C)C(=O)C2(CCCC2)NC(=O)[C@@H]2CCCN2C(=O)[C@H](CCc2ccc(C(F)(F)F)c(Cl)c2)NC(=O)CN(C)C(=O)[C@H](CC2CCCCC2)N(C)C(=O)[C@@H]2CCN2C(=O)[C@H](C)N(C)C1=O ([NMeL]I[NMeA][Aze][NMeCha][Sar][hPhe(3-Cl-4-CF3)]P[Ac5c][NMeGly(cPent)][NMeD]-Morpholide; lactam N-11)
pIC50 [1]: > 8.70
pKd [2]: 9.74
pIC50 [3]: 8.32
Papp at 3 h [4]: 1.74 ×10⁻⁶ cm/s
half-life [5]: 5.98 h
half-life [6]: 4.16 h
half-life [7]: 5.57 h
half-life [8]: 3.96 h
half-life [9]: 8.14 h
half-life [10]: 7.71 h
AUC(0-inf) [11]: 1350 ng·h/mL
AUC(0-inf) [12]: 3880 ng·h/mL
AUC(0-inf) [13]: 2140 ng·h/mL
AUC(0-inf) [14]: 3520 ng·h/mL
AUC [15]: 673 ng·h/mL
AUC [16]: 12500 ng·h/mL
clearance [17]: 12.4 mL/min/kg
clearance [18]: 7.81 mL/min/kg
clearance [19]: 4.3 mL/min/kg
Vd [20]: 3 L/kg
Vd [21]: 0.82 L/kg
Vd [22]: 0.37 L/kg
bioavailability [23]: 14%
bioavailability [24]: 21%
F [25]: 7.2%
microsomal CLint at 0.2 µM [26]: 26 µL/min/mg
microsomal CLint at 0.2 µM [27]: 27 µL/min/mg
microsomal CLint at 0.2 µM [28]: 28 µL/min/mg
microsomal CLint at 0.2 µM [29]: 43 µL/min/mg

CC[C@H](C)[C@@H]1NC(=O)[C@H]([C@@H](C)O)N(C)C(=O)C[C@@H](C(=O)N2CCCCC2)N(C)C(=O)[C@H](C2CCCCC2)N(C)C(=O)C2(CCCC2)NC(=O)[C@@H]2CCCN2C(=O)[C@H](CCc2ccc(C(F)(F)F)c(Cl)c2)NC(=O)CN(C)C(=O)[C@H](CC2CCCCC2)N(C)C(=O)CN(C)C(=O)CN(C)C1=O ([NMeT]I[Sar][Sar][NMeCha][Sar][hPhe(3-Cl-4-CF3)]P[Ac5c][NMeChg][NMeD]-Piperidide; lactam N-11)
pIC50 [1]: > 8.70
pKd [2]: 9.64
pIC50 [3]: 6.66
Papp at 3 h [4]: 0.15 ×10⁻⁶ cm/s
K [30]: 1.2 10^6/Ms
K [31]: 2.7 10^-4/s

CC[C@H](C)[C@@H]1NC(=O)[C@H](CCO)N(C)C(=O)C[C@@H](C(=O)N2CCCCC2)N(C)C(=O)[C@H](C2CCCCC2)N(C)C(=O)C2(CCCC2)NC(=O)[C@@H]2CCCN2C(=O)[C@H](CCc2ccc(C(F)(F)F)c(Cl)c2)NC(=O)CN(C)C(=O)[C@H](CC2CCCCC2)N(C)C(=O)CN(C)C(=O)CN(C)C1=O ([NMehSer]I[Sar][Sar][NMeCha][Sar][hPhe(3-Cl-4-CF3)]P[Ac5c][NMeChg][NMeD]-Piperidide; lactam N-11)
pIC50 [1]: > 8.70
pKd [2]: 9.77
pIC50 [3]: 7.20
Papp at 3 h [4]: 0.39 ×10⁻⁶ cm/s
K [30]: 1.2 10^6/Ms
K [31]: 2.2 10^-4/s

CC[C@H](C)[C@@H]1NC(=O)[C@H](CC2CCCCC2)N(C)C(=O)C[C@@H](C(=O)N2CCCCC2)N(C)C(=O)[C@H](C2CCCCC2)N(C)C(=O)C2(CCCC2)NC(=O)[C@@H]2CCCN2C(=O)[C@H](CCc2ccc(C(F)(F)F)c(Cl)c2)NC(=O)CN(C)C(=O)[C@H](CC2CCCCC2)N(C)C(=O)CN(C)C(=O)CN(C)C1=O ([NMeCha]I[Sar][Sar][NMeCha][Sar][hPhe(3-Cl-4-CF3)]P[Ac5c][NMeChg][NMeD]-Piperidide; lactam N-11)
pIC50 [1]: > 8.70
pKd [2]: 8.60
pIC50 [3]: 6.68
Papp at 3 h [4]: 0.2 ×10⁻⁶ cm/s
K [30]: 1 10^5/Ms
K [31]: 2.6 10^-4/s
